In ChEMBL document CHEMBL1151558, “An efficient synthesis and biological activities of 19-nor-17-hydroxy-17-trifluoromethyl-4-estren-3-one and its analogs” (Bioorg Med Chem Lett, 1995) one finds relative binding affinity (RBA) and IC50 data, which are given here for 4 molecules.

Assay [1] concerns the target T1, Progesterone receptor (Rattus norvegicus) (UniProt Q63449).
T1 sequence (whole entry): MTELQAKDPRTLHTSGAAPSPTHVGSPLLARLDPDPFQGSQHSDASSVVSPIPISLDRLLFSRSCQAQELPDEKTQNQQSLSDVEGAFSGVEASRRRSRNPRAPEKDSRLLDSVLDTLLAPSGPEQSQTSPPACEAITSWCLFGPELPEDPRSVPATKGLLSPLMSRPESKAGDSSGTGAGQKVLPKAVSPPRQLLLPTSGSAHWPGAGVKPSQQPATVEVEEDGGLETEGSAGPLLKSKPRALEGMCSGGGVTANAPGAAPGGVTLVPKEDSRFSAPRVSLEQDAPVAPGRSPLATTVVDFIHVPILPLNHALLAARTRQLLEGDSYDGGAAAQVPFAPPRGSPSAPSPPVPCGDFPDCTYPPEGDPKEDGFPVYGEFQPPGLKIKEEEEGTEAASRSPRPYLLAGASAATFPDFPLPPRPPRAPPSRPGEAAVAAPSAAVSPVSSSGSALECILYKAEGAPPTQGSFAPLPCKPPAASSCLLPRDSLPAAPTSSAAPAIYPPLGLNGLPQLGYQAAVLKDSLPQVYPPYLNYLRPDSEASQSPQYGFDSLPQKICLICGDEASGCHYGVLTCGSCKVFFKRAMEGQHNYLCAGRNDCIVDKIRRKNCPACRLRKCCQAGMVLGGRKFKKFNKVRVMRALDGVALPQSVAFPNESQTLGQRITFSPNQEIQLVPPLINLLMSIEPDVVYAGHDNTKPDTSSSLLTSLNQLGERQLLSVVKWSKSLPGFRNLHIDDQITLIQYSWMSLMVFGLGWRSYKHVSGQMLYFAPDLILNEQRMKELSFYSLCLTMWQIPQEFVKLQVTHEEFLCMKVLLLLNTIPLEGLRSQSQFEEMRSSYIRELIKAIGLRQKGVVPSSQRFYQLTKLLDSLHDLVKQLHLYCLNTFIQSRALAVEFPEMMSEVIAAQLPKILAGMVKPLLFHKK
Put plainly: Binding affinity for cytosolic progesterone receptor (PRc) of rat uterus compared to RU-486.

Another assay has as its target T2, Progesterone receptor (Rattus norvegicus, UniProt Q63449).
T2 sequence (Q63449 whole entry): T1 sequence (whole entry)
Put plainly: Inhibition of [3H]R5020 binding to cytosolic progesterone receptor (PRc) of rat uterus.

`C[C@]12CCC3C(CCC4=CC(=O)CC[C@@H]43)C1CC[C@@]2(O)C(F)(F)F` (some centres not stated) came in with a relative binding affinity (RBA) in assay [1] of 292. Moreover, the IC50 (usually the concentration at which inhibition is half-maximal) on Progesterone receptor was 1.2 nM.
In assay [1], `CC#C[C@]1(O)CC[C@H]2[C@@H]3CCC4=CC(=O)CCC4=C3[C@@H](c3ccc(N(C)C)cc3)C[C@@]21C` displayed a relative binding affinity (RBA) of 100.
As to `C[C@]12C=CC3=C4CCC(=O)C=C4CCC3C1CC[C@@]2(O)C(F)(F)F` (some centres not stated), in assay [1], the relative binding affinity (RBA) amounted to 38.9. Also, the 50% inhibitory concentration (IC50) at Progesterone receptor came out at 9 nM.
In assay [1], `C[C@]12CCC3=C4CCC(=O)C=C4CCC3C1CC[C@@]2(O)C(F)(F)F` (some centres not stated) showed a relative binding affinity (RBA) of 77.8. For the same molecule, the concentration for half-maximal inhibition (IC50) on Progesterone receptor turned out to be 4.5 nM.
